Reference: patent US8383637B2, “2-amino-quinazoline derivatives useful as inhibitors of β-secretase (BACE)” (Jansssen Pharmaceutica N.V., priority 2004, dated 2013)

Molecular target: T1, β-secretase(BACE) (Homo sapiens, UniProt P56817)
T1 construct: purchased Panvera
Assay: BACE FS1% Inhibition Assay
Assay type: biochemical
Conditions: FS1 substrate; for % Inhibition (FS) 0.3 μM / inhibition at 0.3 µM: 0.3 μM test compound; for % Inhibition (FS) 1 μM / inhibition at 1 µM: 1 μM test compound; for % Inhibition (FS) 3 μM / inhibition at 3 µM: 3 μM test compound; for inhibition at 0.3 µM: read-out: % Inhibition (FS) 0.3 μM; for inhibition at 1 µM: read-out: % Inhibition (FS) 1 μM; for inhibition at 3 µM: read-out: % Inhibition (FS) 3 μM
How it was run: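 Percent inhibition at each tested concentration, referenced to enzyme-free blank and vehicle-only positive control. Reaction: compound and BACE (4 μg/mL working stock) mixed 20 min at room temperature before FS1 substrate (300 μg/mL working stock), then 1 h at room temperature.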

T1 sequence (P56817 46-501): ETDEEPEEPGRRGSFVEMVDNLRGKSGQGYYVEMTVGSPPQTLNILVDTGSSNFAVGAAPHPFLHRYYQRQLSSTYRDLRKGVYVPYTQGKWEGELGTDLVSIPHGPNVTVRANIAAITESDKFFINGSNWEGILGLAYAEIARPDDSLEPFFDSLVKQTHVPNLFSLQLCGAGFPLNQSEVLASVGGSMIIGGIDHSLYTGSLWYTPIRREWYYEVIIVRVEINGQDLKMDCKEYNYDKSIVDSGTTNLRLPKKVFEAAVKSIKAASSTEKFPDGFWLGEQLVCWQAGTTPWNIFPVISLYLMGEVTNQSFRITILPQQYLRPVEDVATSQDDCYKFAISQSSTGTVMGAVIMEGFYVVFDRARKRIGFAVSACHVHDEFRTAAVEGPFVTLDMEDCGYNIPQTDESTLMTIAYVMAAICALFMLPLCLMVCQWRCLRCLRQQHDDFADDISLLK

| SMILES | % Inhibition (FS) 0.3 μM | % Inhibition (FS) 1 μM | % Inhibition (FS) 3 μM | other results |
| --- | --- | --- | --- | --- |
| CCCC=Cc1ccc2c(c1)CN(CCNC(=O)CCC)C(N)=N2 [Compound 571] | <30% | <30% | <30% |  |
| CC(C)(C)C(=O)NCCN1Cc2cc(-c3ccncc3)ccc2N=C1N [Compound 573] | <30% | <30% | <30% |  |
| CCCC=Cc1ccc2c(c1)CN(CCNC(=O)C(C)(C)C)C(N)=N2 [Compound 574] | <30% | <30% | <30% |  |
| NC1=Nc2ccc(-c3cncnc3)cc2CN1CCNC(=O)C1CCCCC1 [Compound 575] | <30% | <30% | <30% |  |
| NC1=Nc2ccc(-c3ccncc3)cc2CN1CCNC(=O)C1CCCCC1 [Compound 576] | <30% | <30% | <30% |  |
| CCCC=Cc1ccc2c(c1)CN(CCNC(=O)C1CCCCC1)C(N)=N2 [Compound 577] | <30% | <30% | <30% |  |
| CCCC=Cc1ccc2c(c1)CN(CCNC(=O)CC1CCCC1)C(N)=N2 [Compound 580] | <30% | <30% | <30% |  |
| CC(=O)c1cccc(-c2ccc3c(c2)CN(CCNC(=O)CC2CCCC2)C(N)=N3)c1 [Compound 582] | <30% | <30% | <30% |  |
| NC1=Nc2ccc(-c3cccc(C(F)(F)F)c3)cc2CN1CCNC(=O)CC1CCCC1 [Compound 584] | <30% | <30% | 56% |  |
| Cc1cc(C(=O)NCCN2Cc3cc(-c4ccccc4)ccc3N=C2N)c(C)o1 [Compound 586] | <30% | <30% | 59% |  |
| CCCC=Cc1ccc2c(c1)CN(CCNC(=O)c1cc(C)oc1C)C(N)=N2 [Compound 587] | <30% | <30% | <30% |  |
| CC(=O)c1cccc(-c2ccc3c(c2)CN(CCNC(=O)c2cc(C)oc2C)C(N)=N3)c1 [Compound 588] | <30% | <30% | <30% |  |
| Cc1cc(C(=O)NCCN2Cc3cc(-c4cccc(CO)c4)ccc3N=C2N)c(C)o1 [Compound 589] | <30% | <30% | <30% |  |
| Cc1cc(C(=O)NCCN2Cc3cc(-c4cccc(C(F)(F)F)c4)ccc3N=C2N)c(C)o1 [Compound 590] | <30% | <30% | <30% |  |
| CC(=O)Nc1ccc(C(=O)NCCN2Cc3cc(-c4ccccc4)ccc3N=C2N)cc1 [Compound 591] | <30% | <30% | <30% |  |
| CCCC=Cc1ccc2c(c1)CN(CCNC(=O)c1ccc(NC(C)=O)cc1)C(N)=N2 [Compound 592] | <30% | <30% | <30% |  |
| CC(=O)Nc1ccc(C(=O)NCCN2Cc3cc(-c4cccc(CO)c4)ccc3N=C2N)cc1 [Compound 593] | <30% | <30% | <30% |  |
| CC(=O)Nc1ccc(C(=O)NCCN2Cc3cc(-c4cccc(C(F)(F)F)c4)ccc3N=C2N)cc1 [Compound 594] | <30% | <30% | <30% |  |
| NC1=Nc2ccc(-c3ccccc3)cc2CN1CCNC(=O)Cc1ccccc1 [Compound 595] | 32% | 70% | 104% |  |
| CCCC=Cc1ccc2c(c1)CN(CCNC(=O)Cc1ccccc1)C(N)=N2 [Compound 596] | <30% | <30% | <30% |  |

| SMILES | % Inhibition (FS) 0.3 μM | % Inhibition (FS) 1 μM | % Inhibition (FS) 3 μM | other results |
| --- | --- | --- | --- | --- |
| CC(=O)c1cccc(-c2ccc3c(c2)CN(CCNC(=O)Cc2ccccc2)C(N)=N3)c1 [Compound 598] | <30% | <30% | 36% |  |
| NC1=Nc2ccc(-c3cccc(CO)c3)cc2CN1CCNC(=O)Cc1ccccc1 [Compound 599] | <30% | <30% | 65% |  |
| NC1=Nc2ccc(-c3cccc(C(F)(F)F)c3)cc2CN1CCNC(=O)Cc1ccccc1 [Compound 600] | <30% | <30% | 41% |  |
| CCCC(CNC(=O)C12CC3CC(CC(C3)C1)C2)N1Cc2cc(Oc3ccccc3)ccc2N=C1N (stereo not shown) [Compound 602] |  |  |  | % Inhibition (FS) 0.3 μM (0.3 µM): 78%; % Inhibition (FS) 1 μM (1 µM): 113%; % Inhibition (FS) 3 μM (3 µM): 121% |
| CCC[C@H](CNC(=O)CCC(C)C)N1Cc2cc(Oc3ccccc3)ccc2N=C1N [Compound 603] | 101% | 114% | 122% |  |
| NC1=Nc2ccc(Oc3ccccc3)cc2CN1C(Cc1ccccc1)c1ocnc1C(=O)NC1CCCCC1 (stereo not shown) [Compound 606, 5-[1-(2-Amino-6-phenoxy-4H-quinazolin-3-yl)-2-phenyl-ethyl]-oxazole-4-carboxylic acid cyclohexylamide] |  |  |  | inhibition at 0.3 µM: < 30%; inhibition at 1 µM: < 30%; inhibition at 3 µM: 56% |
| COc1ccccc1-c1ccc2c(c1)CN(Cc1cccc(C(=O)N(C)C3CCCCC3)c1)C(NC(C)=O)=N2 [Compound 607] | 94% | 116% | 123% |  |
| NC1=Nc2ccc(Oc3ccccc3)cc2CN1C1CCCN(C(=O)C2CCCCC2)C1 (stereo not shown) [Compound 611] | <30% | 36% | <30% |  |
| CCCC(CCC)C(=O)N1CCCC(N2Cc3cc(Oc4ccccc4)ccc3N=C2N)C1 (stereo not shown) [Compound 612] | <30% | 34% | <30% |  |
| CC(C)CCC(=O)N1CCCC(N2Cc3cc(Oc4ccccc4)ccc3N=C2N)C1 (stereo not shown) [Compound 613] | 36% | 31% | <30% |  |
| NC1=Nc2ccc(Oc3ccccc3)cc2CN1C(CNC(=O)C1CCCCC1)Cc1ccc(O)cc1 (stereo not shown) [Compound 614] | <30% | <30% | <30% |  |
| CC(C)CCC(=O)NCC(Cc1ccc(O)cc1)N1Cc2cc(Oc3ccccc3)ccc2N=C1N (stereo not shown) [Compound 615] | <30% | <30% | <30% |  |
| NC1=Nc2ccc(Oc3ccccc3)cc2CN1C(CNC(=O)C1CCCCC1)Cc1ccc(O)cc1 (stereo not shown) [Compound 616] |  |  | <30% |  |
| COc1ccccc1-c1ccc2c(c1)N=C(N)N(CCC(=O)NC1C3CC4CC(C3)CC1C4)C2 (stereo not shown) [Compound 617, N-Adamantan-2-yl-3-[2-amino-7-(2-methoxy-phenyl)-4H-quinazolin-3-yl]-propionamide] |  |  |  | inhibition at 0.3 µM: < 30%; inhibition at 1 µM: 34%; inhibition at 3 µM: 41% |
| COc1ccccc1-c1cc2c(cc1F)CN(CCC(=O)NC1C3CC4CC(C3)CC1C4)C(N)=N2 (stereo not shown) [Compound 620] | <30% | <30% | 37% |  |
| NC1=Nc2ccc(-c3ccc(F)cc3)cc2CN1CCNC(=O)C1CCCCC1 [Compound 623] | <30% |  |  | % Inhibition (FS) 1 μM (1 µM): <30%; % Inhibition (FS) 3 μM (3 µM): 82% |
| NC1=Nc2ccc(-c3ccc(F)cc3)cc2CN1CCNC(=O)C1CCCCC1 [Compound 624] | <30% |  |  | % Inhibition (FS) 1 μM (1 µM): 38%; % Inhibition (FS) 3 μM (3 µM): 78% |
| NC1=Nc2ccc(-c3ccc(Cl)cc3)cc2CN1CCNC(=O)C1CCCCC1 [Compound 626] | <30% | <30% | 56% |  |
| Cc1ccc(-c2ccc3c(c2)CN(CCNC(=O)C2CCCCC2)C(N)=N3)cc1 [Compound 628] | <30% | <30% | 32% |  |
